Laboratory results published in the NIST ThermoML archive (doi:10.1016/j.tca.2016.12.010).

Experiments:
[1] = Liquid; for mass density: 94.9 kPa, Vibrating tube method; for vapor or sublimation pressure: Ebulliometric method (Recirculating still)
[2] = refractive index (Na D-line) (dimensionless); details: 94.9 kPa, Liquid, (Schmidt +Haensch) refractometer (Model DSR lambda)
[3] = refractive index (Na D-line) (dimensionless); xn = mol fraction of the nth substance listed; details: 94.9 kPa, Liquid, (Schmidt +Haensch) refractometer (Model DSR lambda), x2 = 0
[4] = xn = mol fraction of the nth substance listed; details: 94.9 kPa, Liquid, Vibrating tube method, x2 = 0

CCCCCCCCCCO [decan-1-ol]
Details | mass density, [1] [kg/m3] | refractive index, [2] | vapor or sublimation pressure, [1] [kPa]
293.15 K | 830.01 | 1.43711 | –
303.15 K | 823.54 | 1.43332 | –
313.15 K | 816.13 | 1.42949 | –
323.15 K | 808.84 | 1.42564 | –
333.15 K | 801.43 | 1.42189 | –
436.56 K | – | – | 13.32
469.52 K | – | – | 39.99
487.85 K | – | – | 66.66
501.05 K | – | – | 94.9

CCCCCCCCCCO [decan-1-ol] + C1COCCN1
Details | mass density, 293.15 K [kg/m3] | mass density, 303.15 K [kg/m3] | mass density, 313.15 K [kg/m3] | mass density, 323.15 K [kg/m3] | mass density, 333.15 K [kg/m3] | refractive index, 293.15 K | refractive index, 303.15 K | refractive index, 313.15 K | refractive index, 323.15 K | refractive index, 333.15 K
[3] | – | – | – | – | – | 1.43711 | 1.43332 | 1.42949 | 1.42564 | 1.42189
[4] | 830.01 | 823.54 | 816.13 | 808.84 | 801.43 | – | – | – | – | –

CCCCCCCCO [octan-1-ol]
Details | mass density, [1] [kg/m3] | refractive index, [2]
293.15 K | 825.57 | 1.4295
298.15 K | 821.9 | 1.42748
303.15 K | 818.08 | 1.42561
308.15 K | 814.31 | 1.42369
313.15 K | 811.09 | 1.42169
318.15 K | 807.7 | 1.41973
323.15 K | 804.05 | 1.41783
333.15 K | 796.88 | 1.41407

C1COCCN1 [tetrahydro-1,4-oxazine]
Details | mass density, [1] [kg/m3] | refractive index, [2] | vapor or sublimation pressure, [1] [kPa]
293.15 K | 999.54 | 1.45453 | –
303.15 K | 989.89 | 1.45031 | –
313.15 K | 979.82 | 1.44574 | –
323.15 K | 969.78 | 1.44113 | –
333.15 K | 959.74 | 1.43562 | –
343.91 K | – | – | 13.32
372.25 K | – | – | 39.99
387.57 K | – | – | 66.66
398.92 K | – | – | 94.9

Cc1ccccc1 [toluene]
Details | mass density, [1] [kg/m3] | refractive index, [2]
293.15 K | 866.68 | 1.49666
298.15 K | 861.74 | 1.49386
303.15 K | 857.39 | 1.49193
308.15 K | 851.69 | 1.48821
313.15 K | 847.82 | 1.48536
318.15 K | 842.88 | 1.48249
323.15 K | 838.42 | 1.47968
333.15 K | 828.94 | 1.47401

Cc1ccccc1 [toluene] + CCCCCCCCO
Details | mass density, [4] [kg/m3] | refractive index, [3]
293.15 K | 866.68 | 1.49666
298.15 K | 861.74 | 1.49386
303.15 K | 857.39 | 1.49193
308.15 K | 851.69 | 1.48821
313.15 K | 847.82 | 1.48536
318.15 K | 842.88 | 1.48249
323.15 K | 838.42 | 1.47968
333.15 K | 828.94 | 1.47401
